Patent US8946474B2, “Polymorphic form of a calcimimetic compound” (LEO Pharma A/S, priority 2010, dated 2015)
≈ marks a conversion by molar mass, not a printed value. Where “and” joins values, the source holds several entries; their conditions need not be identical. Equal entries are not always repeated.

Tests used:
Type in all cases: physicochemical
[1] = Stress stability test for solid state transformation; conditions: 60° C., 60° C./75% relative humidity and 80° C./75% relative humidity; 4 weeks
Experimental: Polymorph Form C, Form X and mixtures of the two polymorphic forms C+X have all been tested at different conditions of temperature and relative humidity for signs of solid state transformation. The stress stability test was carried out at three sets of conditions: 60° C., 60° C./75% relative humidity and 80° C./75% relative humidity, and samples were analyzed after 1, 2 and 4 weeks, i.e. after 7, 14 and 28 days.
One 1.8 ml amber screw top vial (27267-U, Supelco) containing between 50 and 100 mg {4-[(1R,3S)-3-((R)-1-Naphthalen-1-yl-ethylamino)-cyclopentyl]-phenoxy}-acetic acid was tested per individual set of conditions. The vials to be tested at 60° C. were closed with a PTFE lined black polypropylene solid cap (27416, Supelco) and placed in a thermostated heating cabinet. The vials to be tested at 60° C./75% relative humidity and 80° C./75% relative humidity were placed uncapped in a desiccator containing a saturated NaCl solution. The desiccator was subsequently placed in a thermostatted heating cabinet.
The samples were analyzed at 1, 2 and 4 weeks for • 1. Visual appearance • 2. HPLC assay and impurities • 3. Polymorph characterization

[2] = Aqueous solubility as a function of pH; conditions: for Solubility / solubility at 24 h: room temperature (25° C.), shaken 24 hours; for solubility at 24 h: 25 °C, thermodynamic from solid
Experimental: In addition to the characterizing analyses by XRPD, XRC, DSC, ATR-FTIR and SS NMR discussed hereinabove, the solubility of {4-[(1R,3S)-3-((R)-1-Naphthalen-1-yl-ethylamino)-cyclopentyl]-phenoxy}-acetic acid Form C and X has been determined as function of pH and in MeOH.
The aqueous solubility of Form C and Form X was determined as a function of pH at 25° C. in 0.1N HCl (pH 1.0) and in Sorensen phosphate buffers at pH 2.0, 4.0, 6.0 and 8.0. For each pH value two individual determinations were made. Form C or Form X was weighed out (11 mg for pH 1, 4 mg for pH 2-8) in scintillation vials and 4 ml 0.1N HCl or buffer was added. The vials were shaken for 24 hours at 25° C. After 24 hours it was checked that the vial still contained undissolved material. The suspensions were filtered through a 0.45 μm filter, which was first saturated with app. 0.5 ml filtrate. The resulting filtrates were diluted and analyzed by HPLC vs. a standard curve.

[3] = Thermo gravimetric analysis (TGA); conditions: TGA trail of Graph 4b (Form X), ±2° C.
Experimental: TGA experiments were conducted using a Perkin Elmer Pyris 1 TGA instrument. About 10-20 mg of sample was loaded into a ceramic pan for the measurements. The sample temperature was ramped from 25 to 350° C. at 10° C./min. Nitrogen was used as the purge gas at a flow rate of 40 mL/min.

Row | Compound | 4 week stress stability test without any solid state transformation [1] | Solubility ([2]; pH 1.0 (0.1N HCl)) [µg/mL] | Solubility ([2]; pH 2.0 (Sorensen phosphate buffer)) | Solubility ([2]; pH 4.0 (Sorensen phosphate buffer)) | Solubility ([2]; pH 6.0 (Sorensen phosphate buffer)) [µg/mL] | Solubility ([2]; pH 8.0 (Sorensen phosphate buffer)) [µg/mL] | solubility at 24 h ([2]; 0.1N HCl, pH 1, simulated gastric fluid, pH 1.0 (0.1N HCl)) [µg/mL] | solubility at 24 h ([2]; Sorensen phosphate buffer, pH 2, aqueous buffer, pH 2.0 (Sorensen phosphate buffer)) [µg/mL] | solubility at 24 h ([2]; Sorensen phosphate buffer, pH 4, aqueous buffer, pH 4.0 (Sorensen phosphate buffer)) [µg/mL] | solubility at 24 h ([2]; Sorensen phosphate buffer, pH 6, aqueous buffer, pH 6.0 (Sorensen phosphate buffer)) [µg/mL] | solubility at 24 h ([2]; Sorensen phosphate buffer, pH 8, aqueous buffer, pH 8.0 (Sorensen phosphate buffer)) [µg/mL] | solubility compared to Form C ([2]; room temperature) | stable towards degradation at temperatures below [3]
1 | C[C@@H](N[C@H]1CC[C@@H](c2ccc(OCC(=O)O)cc2)C1)c1cccc2ccccc12 [Form C, {4-[(1R,3S)-3-((R)-1-Naphthalen-1-yl-ethylamino)-cyclopentyl]-phenoxy}-acetic acid] | passed | 1225 (≈ 3150 µM) | 394 µg/mL and 329 µg/mL | 52 µg/mL and 53 µg/mL | 43 (≈ 110 µM) | 55 (≈ 141 µM) |  |  |  |  |  |  | 
2 | C[C@@H](N[C@H]1CC[C@@H](c2ccc(OCC(=O)O)cc2)C1)c1cccc2ccccc12 [Form X, {4-[(1R,3S)-3-((R)-1-Naphthalen-1-yl-ethylamino)-cyclopentyl]-phenoxy}-acetic acid] | passed |  |  |  |  |  | 1240 (≈ 3190 µM) | 551 (≈ 1410 µM) | 86 (≈ 221 µM) | 78 (≈ 200 µM) | 80 (≈ 205 µM) | higher | 
3 | C[C@@H](N[C@H]1CC[C@@H](c2ccc(OCC(=O)O)cc2)C1)c1cccc2ccccc12 [{4-[(1R,3S)-3-((R)-1-Naphthalen-1-yl-ethylamino)-cyclopentyl]-phenoxy}-acetic acid] | passed |  |  |  |  |  |  |  |  |  |  |  | below 255 °C
